Laboratory results: publication PMC2669657 (Journal of the American Chemical Society, 2009)

Legend:
[1] = target: T1, human orotate phosphoribosyltransferase (HsOPRT), OPRT domain of UMP synthase (Homo sapiens, UniProt P11172); test: steady-state kinetics; type: biochemical; settings: read-out: OMP / Km
T1 sequence (P11172 2-245): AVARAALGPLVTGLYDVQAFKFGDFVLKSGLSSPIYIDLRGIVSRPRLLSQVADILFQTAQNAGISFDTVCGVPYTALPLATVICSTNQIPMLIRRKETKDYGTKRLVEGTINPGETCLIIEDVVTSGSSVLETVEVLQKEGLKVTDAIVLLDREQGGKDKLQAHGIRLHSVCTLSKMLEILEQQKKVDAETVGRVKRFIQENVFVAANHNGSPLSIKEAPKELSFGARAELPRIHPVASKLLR

[2] = target: Plasmodium falciparum orotate phosphoribosyltransferase (PfOPRT) (Plasmodium falciparum, UniProt Q8N0R1); type: biochemical
[3] = target: T1, human orotate phosphoribosyltransferase (HsOPRT), OPRT domain of UMP synthase; type: biochemical
purified protein = substrate: O=C(O)c1cc(=O)[nH]c(=O)n1[C@@H]1O[C@H](COP(=O)(O)O)[C@@H](O)[C@H]1O; test: purified protein; type: biochemical, Plasmodium falciparum; settings: Mg2+ ([…] MgCl2 in assay); pH 8.0; 25.0 °C
steady-state kinetics = substrate: O=C(O)CP(=O)(O)O; test: steady-state kinetics; type: biochemical, Plasmodium falciparum; settings: Mg2+ ([…] MgCl2 in assay)

With `O=C(O)c1cc(=O)[nH]c(=O)n1[C@@H]1O[C@H](COP(=O)(O)O)[C@@H](O)[C@H]1O` [orotidine 5′-monophosphate] the Km [1] was 1.55 ± 0.61 µM.

`O=[N+]([O-])c1ccc(O[C@@H]2O[C@H](COP(=O)(O)O)[C@@H](O)[C@H]2O)cc1` [p-nitrophenyl β-D-ribose 5′-phosphate] gave a Ki [2] of 40 ± 21 nM.

With `O=[N+]([O-])c1ccc(O[C@@H]2O[C@H](CO)[C@@H](O)[C@H]2O)cc1` [p-nitrophenyl β-D-ribose] the Ki [3] was 121 ± 30 nM and the Ki [2] was 188 ± 40 nM.

B1: Plasmodium falciparum orotate phosphoribosyltransferase (PfOPRT) (Plasmodium falciparum) (protein)
chain: MTTIKENEFLCDEEIYKSFVHLKDKICEERKKKELVNNNIDNVNFNDDDDNNYDDDGNSYSSYIKEMKKLLKVVLLKYKALKFGEFILKSKRKSNYFFSSGVLNNIVSSNIICFLLSELILKNKLSFDYLLGASYKGIPMVSLTSHFLFESKKYSNIFYLYDRKEKKEYGDKNVIVGNLDDDDKDILNLKKKTKNNQDEEKKNIIIIDDVFTCGTALTEILAKLKTYEHLKVVAFIVLLNRNEYEINENNQKIYFKDIFEKRVGIPLYSILSYKDDIQSMI
In the case of B1, the Km (purified protein) is reported as 3.73 ± 1.36 µM, the kcat (purified protein) is reported as 1.96 ± 0.29 s⁻¹ and the kcat/Km (purified protein) is reported as 530000 M⁻¹ s⁻¹. The Km (steady-state kinetics) was 1590 µM.
